According to patent US8309515B2, “Poly(ethylene oxide)-block-poly(ester) block copolymers” (priority 2006, dated 2012):

Key:
[1] = system: B16-BL6 mouse melanoma cells; assay: In vitro cytotoxicity, MTT assay; assay type: cell-based
Procedure: In vitro cytotoxicity activity of PEO-b-P(CL-DOX) and DOX loaded PEO-b-P(CL-DOX) block copolymer micelles were investigated against B16-BL6 mouse melanoma cells using MTT assay. […] After this time, MTT solution (20 μL; 5 mg/ml in sterile-filtered PBS) was added to each well and the plates were reincubated for a further 3 h. The formazan crystals were dissolved in DMSO, and the concentration was read by a Power Wave×340 microplate reader (Bio-Tek Instruments, Inc. USA) at 550 nm.

[2] = system: rat red blood cells; assay: In vitro hemolysis against rat red blood cells; settings: 0.1% triton-X 100, positive control
Procedure: Blood was freshly obtained from a Sprague-Dawley rat by cardiac puncture, mixed with sterile isotonic PBS and centrifuged at 3,000 rpm for 5 minutes. The supernatant were pipetted out and the red blood cells were diluted with isotonic sterile PBS (pH: 7.4). The proper dilution factor was estimated from the UV-Vis absorbance of hemoglobin at 576 nm in the supernatant after RBCs were lysed by 0.1% triton X 100. A properly diluted sample of RBCs gave an absorbance of 0.4 to 0.5. […] After incubation the samples were kept in ice bath to stop further hemolysis. The samples were centrifuged at 14,000 rpm for 30 sec to precipitate the intact RBC cells. The supernatant was separated and analyzed for hemoglobin by UV-Vis spectrophotometer at 576 nm. The percentage of hemolyzed RBC was calculated using the equation: % of hemolysis=100 (Abs−Abs0)/(Abs100-Abs0), where Abs, Abs0 and Abs100 are the absorbance for the sample, control with no polymer or DOX and control with 0.1% triton X 100, respectively.

Compound	times lower IC50 / higher cytotoxicity than PEO-b-P(CL-DOX) micelles ([1]; 24 h incubation)	times lower IC50 than PEO-b-P(CL-DOX) micelles ([1]; 48 h incubation)	hemolysis [2]
COc1cccc2c1C(=O)c1c(O)c3c(c(O)c1C2=O)C[C@@](O)(C(=O)CO)C[C@@H]3O[C@H]1C[C@H](N)[C@H](O)[C@H](C)O1 [free DOX, doxorubicin]	50 times	15 times	
triton-X 100			100%
